Among the data in patent US10172868B2, “Substituted quinazolines for inhibiting kinase activity” (NeuPharma, Inc., priority 2013, dated 2019) are inhibition and IC50 values, retold here.

pIC50: −log10 of the molar value. A value given as a limit tells only on which side of the number the result lay.

For one assay, the target named is EGFR (ErbB1) (Homo sapiens (Human), UniProt P00533). Description: Z'-LYTE kinase inhibition assay, EGFR. The format is biochemical. Conditions: for inhibition at 1 µM: read-out: % inhibition against EGFR (Compound at 1 μM); for inhibition at 0.041 µM: read-out: % inhibition against EGFR (Compound at 0.041 μM); for pIC50: read-out: IC50 against EGFR. An outline of the steps: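 IC50 values derived from 10-point, 3-fold compound dilution series (1% DMSO final) using Z'-LYTE fluorescence readout after 60-min development. Reaction: EGFR (1.1-5.25 ng) with 2 μM peptide, 60 min at room temperature in HEPES pH 7.5 buffer containing MgCl2, MnCl2, EGTA, DTT and BRIJ-35.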

Another assay has as its target EGFR (ErbB1) T790M L858R (Homo sapiens (Human), UniProt P00533, L858R/T790M). Description: Z'-LYTE kinase inhibition assay, EGFR L858R/T790M. The format is biochemical. Particulars: for inhibition at 0.0137 µM: read-out: % inhibition against EGFR L858R/T790M (Compound at 0.0137 μM); for inhibition at 1 µM: read-out: % inhibition against EGFR L858R/T790M (Compound at 1 μM); for pIC50: read-out: IC50 against EGFR L858R/T790M. A digest of the protocol:
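IC50 taken from 10-point, 3-fold serial dilutions tested in 1% DMSO. The mutant kinase and peptide were prepared in HEPES pH 6.5 buffer with BRIJ-35, MgCl2, EGTA and NaN3, then reacted with ATP for 1 h at room temperature. Development reagent was added for a further hour before the fluorescence readout.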

The test system of another assay is HCC827 cells. The experiment in a line: cells. Conditions: Homo sapiens, HCC827, 72 h, read-out: IC50 in HCC827 cells.
A further assay relates to H1975 cells. Description: Inhibition of cancer cell growth, MTT assay, H1975. Conditions: Homo sapiens, NCI-H1975, 72 h, read-out: IC50 in H1975 cells. On the technique in general: Formazan colour is commonly taken as a measure of viable cells.

Chain of EGFR (ErbB1) T790M L858R (P00533 25-1210 T790M/L858R): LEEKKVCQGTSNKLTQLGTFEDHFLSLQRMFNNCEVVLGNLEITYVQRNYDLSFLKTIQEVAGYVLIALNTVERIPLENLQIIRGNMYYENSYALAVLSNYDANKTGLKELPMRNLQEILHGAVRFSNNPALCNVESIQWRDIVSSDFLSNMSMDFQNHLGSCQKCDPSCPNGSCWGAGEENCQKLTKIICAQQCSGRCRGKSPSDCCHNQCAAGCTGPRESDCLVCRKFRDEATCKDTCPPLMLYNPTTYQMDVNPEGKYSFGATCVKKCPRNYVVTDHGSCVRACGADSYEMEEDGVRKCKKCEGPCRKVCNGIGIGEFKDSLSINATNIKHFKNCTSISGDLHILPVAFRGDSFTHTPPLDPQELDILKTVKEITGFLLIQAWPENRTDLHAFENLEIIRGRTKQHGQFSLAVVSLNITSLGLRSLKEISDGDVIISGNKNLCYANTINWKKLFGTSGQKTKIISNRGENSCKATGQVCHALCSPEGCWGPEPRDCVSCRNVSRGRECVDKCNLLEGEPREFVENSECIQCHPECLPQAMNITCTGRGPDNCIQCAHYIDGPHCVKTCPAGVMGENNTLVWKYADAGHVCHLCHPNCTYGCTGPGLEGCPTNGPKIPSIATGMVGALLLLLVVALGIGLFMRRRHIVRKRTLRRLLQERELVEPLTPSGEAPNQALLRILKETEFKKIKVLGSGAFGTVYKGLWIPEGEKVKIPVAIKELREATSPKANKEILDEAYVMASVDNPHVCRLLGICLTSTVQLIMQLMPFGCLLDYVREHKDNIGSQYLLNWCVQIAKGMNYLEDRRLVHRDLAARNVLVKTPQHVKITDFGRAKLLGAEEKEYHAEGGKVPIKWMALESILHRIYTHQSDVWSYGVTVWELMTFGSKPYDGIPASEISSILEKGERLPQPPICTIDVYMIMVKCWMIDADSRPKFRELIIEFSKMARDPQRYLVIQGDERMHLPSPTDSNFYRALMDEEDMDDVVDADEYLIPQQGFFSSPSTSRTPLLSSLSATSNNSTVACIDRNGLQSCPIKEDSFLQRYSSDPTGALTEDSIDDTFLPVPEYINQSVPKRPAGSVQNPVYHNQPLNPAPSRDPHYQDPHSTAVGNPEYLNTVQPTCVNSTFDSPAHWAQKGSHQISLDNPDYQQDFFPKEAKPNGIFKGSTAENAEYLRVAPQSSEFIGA
Chain of EGFR (ErbB1) (P00533 25-1210): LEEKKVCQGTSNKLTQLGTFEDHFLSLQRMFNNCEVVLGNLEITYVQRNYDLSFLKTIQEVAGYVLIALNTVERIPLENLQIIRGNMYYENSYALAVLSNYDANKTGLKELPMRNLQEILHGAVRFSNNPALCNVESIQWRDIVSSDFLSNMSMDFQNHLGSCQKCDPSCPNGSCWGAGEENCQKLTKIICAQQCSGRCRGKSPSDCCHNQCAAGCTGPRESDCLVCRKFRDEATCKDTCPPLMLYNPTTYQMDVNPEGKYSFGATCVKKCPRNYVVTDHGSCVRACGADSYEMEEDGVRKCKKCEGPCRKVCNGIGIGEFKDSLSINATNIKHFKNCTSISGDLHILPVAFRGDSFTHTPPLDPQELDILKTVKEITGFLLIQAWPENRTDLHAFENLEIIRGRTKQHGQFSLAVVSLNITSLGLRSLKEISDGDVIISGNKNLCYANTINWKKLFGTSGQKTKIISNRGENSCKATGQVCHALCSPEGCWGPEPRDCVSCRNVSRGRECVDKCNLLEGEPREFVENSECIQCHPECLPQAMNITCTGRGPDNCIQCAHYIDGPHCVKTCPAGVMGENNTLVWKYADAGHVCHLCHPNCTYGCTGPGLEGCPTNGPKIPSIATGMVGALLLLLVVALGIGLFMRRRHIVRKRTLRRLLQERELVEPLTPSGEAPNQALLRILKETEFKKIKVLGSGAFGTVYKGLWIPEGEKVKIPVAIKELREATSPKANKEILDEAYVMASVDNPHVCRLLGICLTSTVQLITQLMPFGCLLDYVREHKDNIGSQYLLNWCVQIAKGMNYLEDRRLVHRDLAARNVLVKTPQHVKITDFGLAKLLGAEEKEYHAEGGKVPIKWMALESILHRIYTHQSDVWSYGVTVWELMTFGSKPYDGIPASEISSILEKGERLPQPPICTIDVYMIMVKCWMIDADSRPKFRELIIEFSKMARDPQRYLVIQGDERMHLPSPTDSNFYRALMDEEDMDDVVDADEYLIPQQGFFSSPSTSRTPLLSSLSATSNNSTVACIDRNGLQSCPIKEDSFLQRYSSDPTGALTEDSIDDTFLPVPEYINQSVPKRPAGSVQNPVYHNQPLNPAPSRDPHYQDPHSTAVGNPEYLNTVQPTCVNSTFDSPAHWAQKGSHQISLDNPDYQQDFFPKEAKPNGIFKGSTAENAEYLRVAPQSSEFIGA
Method for H1975 cells: Inhibition of cell growth by compounds was measured using MTT assay (Mosmann, T., Journal of Immunological Methods, 1983, 65, 55-63). Tumor cell lines were purchased from ATCC (American Type Culture Collection, Manassas, Va.). All cell lines were maintained in RPMI 1640 (Hyclone) supplemented with 10% fetal bovine serum (FBS, Hyclone), glutamine (2 mM, Hyclone), and antibiotics (penicillin 100 U/mL and streptomycin 50 μg/mL) at 37° C. in a humidified atmosphere of 5% CO2 in air. Taxol (as a positive control. Sigma) and compounds were dissolved in DMSO (Sigma), and the final concentration of DMSO in the medium was 1%. Tumor cells were plated in 96-well plates at densities of about 4000 cells/well of a 96-well plate and allowed to adhere/grow for 24 h. They were then treated with various concentrations of drug for 72 h, 3-(4,5-Dimethylthiazol-2-yl)-2,5-diphenyltetrazolium bromide (MTT, Sigma) was used to determine the number of viable cells at the time of compound addition and the number of cells remaining after 72 h compound exposure. The number of cells remaining after 72 h was compared to the number of viable cells at the time of compound addition by measuring the absorbance at 570 nm, allowing for the calculation of growth inhibition.
(§1) All concentrations of compounds were tested in triplicate and controls were averaged over 4 wells. IC50 was calculated by plotting the concentration of compound vs the percentage of inhibition in treated wells using GraphPad Prism 5.
Method for HCC827 cells: Taxol (as a positive control. Sigma) and compounds were dissolved in DMSO (Sigma), and the final concentration of DMSO in the medium was 1%. Tumor cells were plated in 96-well plates at densities of about 4000 cells/well of a 96-well plate and allowed to adhere/grow for 24 h. They were then treated with various concentrations of drug for 72 h, 3-(4,5-Dimethylthiazol-2-yl)-2,5-diphenyltetrazolium bromide (MTT, Sigma) was used to determine the number of viable cells at the time of compound addition and the number of cells remaining after 72 h compound exposure. The number of cells remaining after 72 h was compared to the number of viable cells at the time of compound addition by measuring the absorbance at 570 nm, allowing for the calculation of growth inhibition.
as §1
The scale utilized in Tables 5 is as follows: +++ less than 100 nM; ++ between 100 nM and 500 nM; and + greater than 500 nM.

As to `C=CC(=O)Nc1cccc(-c2cccc3cnc(Nc4ccc(N5CCOCC5)cc4)nc23)c1` [Example C001, N-(3-(2-((4-morpholinophenyl)amino)quinazolin-8-yl)phenyl)acrylamide], the inhibition at 1 µM on EGFR (ErbB1) and on EGFR (ErbB1) T790M L858R was greater than 50% in each case. Moreover, the inhibition at 0.0137 µM at EGFR (ErbB1) T790M L858R was less than 50%. Also, the figures for the pIC50 on EGFR (ErbB1) T790M L858R, with HCC827 cells and in the assay with H1975 cells were greater than 7.00, greater than 7.00 and 6.30 to 7.00, respectively.

Turning to `C=CC(=O)Nc1cccc(-c2cccc3cnc(Nc4ccc(N5CCOCC5)cc4OC)nc23)c1` [Example C002, N-(3-(2-((2-methoxy-4-morpholinophenyl)amino)quinazolin-8-yl)phenyl)acrylamide], the results for the inhibition at 1 µM at EGFR (ErbB1) and on EGFR (ErbB1) T790M L858R were less than 50% and greater than 50%, respectively. In the assay with HCC827 cells, the pIC50 is 6.30 to 7.00.

With `C=CC(=O)Nc1cccc(-c2cccc3cnc(Nc4ccc(N5CCN(C)CC5)cc4OC)nc23)c1` [Example C003, N-(3-(2-((2-methoxy-4-(4-methylpiperazin-1-yl)phenyl)amino)quinazolin-8-yl)phenyl)acrylamide], the inhibition at 1 µM on EGFR (ErbB1) and on EGFR (ErbB1) T790M L858R was greater than 50% throughout. The inhibition at 0.0137 µM at EGFR (ErbB1) T790M L858R is greater than 50%. Also, the figures for the pIC50 at EGFR (ErbB1) T790M L858R, in the assay on HCC827 cells and with H1975 cells were greater than 7.00, greater than 7.00 and 6.30 to 7.00, respectively.

Regarding `c1ccc(-c2cccc3cnc(Nc4ccc(N5CCOCC5)cc4)nc23)cc1` [Example C004, N-(4-morpholinophenyl)-8-phenylquinazolin-2-amine], the inhibition at 1 µM on EGFR (ErbB1) was less than 50%; at EGFR (ErbB1) T790M L858R, greater than 50%. In addition, the pIC50 in the assay with HCC827 cells and in the assay with H1975 cells was less than 6.30 each time.

Consider `C=CC(=O)Nc1cccc(-c2nccc3c(N)nc(Nc4ccc(N5CCOCC5)cc4)nc23)c1` [Example C005, N-(3-(4-amino-2-((4-morpholinophenyl)amino)pyrido[3,4-d]pyrimidin-8-yl)phenyl)acrylamide], for which the inhibition at 1 µM on EGFR (ErbB1) was greater than 50%; on EGFR (ErbB1) T790M L858R, less than 50%. Moreover, the values for the pIC50 in the assay with HCC827 cells and with H1975 cells were 6.30 to 7.00 and less than 6.30, respectively.

Turning to `Fc1ccc(Cl)cc1-c1cccc2cnc(Nc3ccc(N4CCOCC4)cc3)nc12` [Example C007, 8-(5-chloro-2-fluorophenyl)-N-(4-morpholinophenyl)quinazolin-2-amine], the inhibition at 1 µM on EGFR (ErbB1) and at EGFR (ErbB1) T790M L858R was less than 50% each time. In addition, the pIC50 in the assay on HCC827 cells and in the assay on H1975 cells was less than 6.30 each time.

Take `Clc1cccc(-c2cccc3cnc(Nc4ccc(N5CCOCC5)cc4)nc23)c1` [Example C008, 8-(3-chlorophenyl)-N-(4-morpholinophenyl)quinazolin-2-amine]: the inhibition at 1 µM at EGFR (ErbB1) and on EGFR (ErbB1) T790M L858R was less than 50% each time. Moreover, the pIC50 with HCC827 cells and in the assay on H1975 cells was less than 6.30 throughout.

As to `Fc1cccc(-c2cccc3cnc(Nc4ccc(N5CCOCC5)cc4)nc23)c1` [Example C009, 8-(3-fluorophenyl)-N-(4-morpholinophenyl)quinazolin-2-amine], the inhibition at 1 µM on EGFR (ErbB1) and at EGFR (ErbB1) T790M L858R was less than 50% throughout. The pIC50 in the assay on HCC827 cells and with H1975 cells was less than 6.30 throughout.

For the compound `Fc1ccccc1-c1cccc2cnc(Nc3ccc(N4CCOCC4)cc3)nc12` [Example C010, 8-(2-fluorophenyl)-N-(4-morpholinophenyl)quinazolin-2-amine], the inhibition at 1 µM at EGFR (ErbB1) and at EGFR (ErbB1) T790M L858R was less than 50% throughout. Further, the pIC50 in the assay with HCC827 cells and in the assay with H1975 cells was less than 6.30 in each case.

Regarding `Clc1ccccc1-c1cccc2cnc(Nc3ccc(N4CCOCC4)cc3)nc12` [Example C011, 8-(2-chlorophenyl)-N-(4-morpholinophenyl)quinazolin-2-amine], the inhibition at 1 µM on EGFR (ErbB1) and on EGFR (ErbB1) T790M L858R was less than 50% each time. Besides, the pIC50 in the assay on HCC827 cells and in the assay with H1975 cells was less than 6.30 in each case.

Consider `C=CC(=O)Nc1cccc(-c2nccc3cnc(Nc4ccc(N5CCOCC5)cc4)nc23)c1` [Example C012, N-(3-(2-((4-morpholinophenyl)amino)pyrido[3,4-d]pyrimidin-8-yl)phenyl)acrylamide], for which the inhibition at 1 µM at EGFR (ErbB1) is less than 50%; at EGFR (ErbB1) T790M L858R, greater than 50%. Moreover, the results for the pIC50 in the assay on HCC827 cells and with H1975 cells were greater than 7.00 and 6.30 to 7.00, respectively.

With `C=CC(=O)Nc1cccc(-c2cccc3cnc(Nc4ccc(N5CCN(C)CC5)cc4)nc23)c1` [Example C021, N-(3-(2-((4-(4-methylpiperazin-1-yl)phenyl)amino)quinazolin-8-yl)phenyl)acrylamide], at EGFR (ErbB1), the inhibition at 0.041 µM was greater than 50%. Further, the pIC50 at EGFR (ErbB1), at EGFR (ErbB1) T790M L858R, in the assay with HCC827 cells and in the assay on H1975 cells was greater than 7.00 throughout.

With `C=CC(=O)Nc1cccc(-c2cccc3cnc(Nc4ccc(N5CCN(C)CC5)nc4)nc23)c1` [Example C041, N-(3-(2-((6-(4-methylpiperazin-1-yl)pyridin-3-yl)amino)quinazolin-8-yl)phenyl)acrylamide], the inhibition at 0.041 µM at EGFR (ErbB1) was greater than 50%. The pIC50 on EGFR (ErbB1) is greater than 7.00; on EGFR (ErbB1) T790M L858R, greater than 7.00; in the assay with HCC827 cells it was greater than 7.00; in the assay with H1975 cells it was 6.30 to 7.00.

On to `C=CC(=O)Nc1cccc(-c2cccc3cnc(Nc4ccc(N5CCN(C)CC5)cc4F)nc23)c1` [Example C044, N-(3-(2-((2-fluoro-4-(4-methylpiperazin-1-yl)phenyl)amino)quinazolin-8-yl)phenyl)acrylamide], for which, at EGFR (ErbB1), the inhibition at 0.041 µM was greater than 50% and the pIC50 was greater than 7.00. Besides, on EGFR (ErbB1) T790M L858R, the inhibition at 0.0137 µM is greater than 50% and the pIC50 was greater than 7.00. Also, in the assay with H1975 cells, the pIC50 is greater than 7.00.

As to `C=CC(=O)Nc1cccc(-c2cccc3cnc(Nc4ccc(N5CCN(CCF)CC5)cc4)nc23)c1` [Example C053, N-(3-(2-((4-(4-(2-fluoroethyl)piperazin-1-yl)phenyl)amino)quinazolin-8-yl)phenyl)acrylamide], at EGFR (ErbB1), the inhibition at 0.041 µM is less than 50% and the inhibition at 1 µM was greater than 50%. Also, on EGFR (ErbB1) T790M L858R, the inhibition at 0.0137 µM is greater than 50% and the inhibition at 1 µM was greater than 50%. In the assay with H1975 cells, the pIC50 was greater than 7.00.

Turning to `C=CC(=O)Nc1cccc(-c2cccc3cnc(Nc4ccc(N5CCN(CCO)CC5)cc4)nc23)c1` [Example C059, N-(3-(2-((4-(4-(2-hydroxyethyl)piperazin-1-yl)phenyl)amino)quinazolin-8-yl)phenyl)acrylamide], on EGFR (ErbB1), the inhibition at 0.041 µM was greater than 50%. Besides, the pIC50 on EGFR (ErbB1), at EGFR (ErbB1) T790M L858R, in the assay on HCC827 cells and in the assay on H1975 cells was greater than 7.00 each time.
